Reference: US20240016953A1, “TARGETED DELIVERY OF NICOTINAMINDE ADENINE DINUCLEOTIDE SALVAGE PATHWAY INHIBITORS” (Seagen Inc., priority 2016, published 2024)

What was measured:
[1] = system: HepG2 (hepatocellular carcinoma); assay: Cytotoxicity (CellTiter-Glo) assay, HepG2; format: cell-based; settings: Homo sapiens, HepG2, read-out: IC50, Cytotoxicity HepG2
Procedure: (§1) Example 99: Binding and cytoxicity of NAMPTi compounds. NAMPTi compounds and derivatives thereof bearing functional groups on their NAMPT Tail (TN) Units for covalent attachment as a NAMPT Drug Unit to a Linker Unit of a Drug Linker compound or Ligand Drug Conjugate were evaluated for binding to enzymatically competent NAMPT using a fluorescence polarization assay as described in Example X, and for cytotoxicity using the CellTiter-Glo™ assay as described in Example XX. […] In vitro cytotoxicities were more varied, with differences in membrane permeability potentially influencing the observed IC50 values. Tighter-binding compounds determined from the polarization assay representation various NAMPT Head Unit classes were selected for further elaboration into drug linker moieties within Drug Linker compounds and Ligand Drug Conjugates. Those elaborations employed carbamate or benzyl ether functional groups or methylene-alkoxy carbamate (MAC) units for covalent attachment of the NAMPT Drug Unit to a self-immolative Spacer Unit in the Linker Units of the drug linker moieties, depending on the functional group presented by the TN Unit.

[2] = system: MOLM-13 (acute myeloid leukemia); assay: Cytotoxicity (CellTiter-Glo) assay, MOLM-13; format: cell-based; settings: Homo sapiens, MOLM-13, read-out: IC50, Cytotoxicity MOLM-13
Procedure: as §1

[3] = system: L540cy (Hodgkin's lymphoma); assay: Cytotoxicity (CellTiter-Glo) assay, L540cy; format: cell-based; settings: read-out: IC50, Cytotoxicity L540cy
Procedure: as §1

[4] = system: BxPC-3 (pancreatic adenocarcinoma); assay: Cytotoxicity (CellTiter-Glo) assay, BxPC-3; format: cell-based; settings: Homo sapiens, BXPC-3, read-out: IC50, Cytotoxicity BxPC-3
Procedure: as §1

NAMPT = molecular target: T1, NAMPT (Homo sapiens, UniProt P43490); assay: Fluorescence polarization (FP) assay for binding to purified NAMPT; settings: for IC50: NAMPT 120 nM, fluorescent probe 30 nM, 4 hours at room temp
T1 construct: made in house; host or cells: E. coli (pET28a vector, Novagen)
T1 sequence (P43490 whole entry): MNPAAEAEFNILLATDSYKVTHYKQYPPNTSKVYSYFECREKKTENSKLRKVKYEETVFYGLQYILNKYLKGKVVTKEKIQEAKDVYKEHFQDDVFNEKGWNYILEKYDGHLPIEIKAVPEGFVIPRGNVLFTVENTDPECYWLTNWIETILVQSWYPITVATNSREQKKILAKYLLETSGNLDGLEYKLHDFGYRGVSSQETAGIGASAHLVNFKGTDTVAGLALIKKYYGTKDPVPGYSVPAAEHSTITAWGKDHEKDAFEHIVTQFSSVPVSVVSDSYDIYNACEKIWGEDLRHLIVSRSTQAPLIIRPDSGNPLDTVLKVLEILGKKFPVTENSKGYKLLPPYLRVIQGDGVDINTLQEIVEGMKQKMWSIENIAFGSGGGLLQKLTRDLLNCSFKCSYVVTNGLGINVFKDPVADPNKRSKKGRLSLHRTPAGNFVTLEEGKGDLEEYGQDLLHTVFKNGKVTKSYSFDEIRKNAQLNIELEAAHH

Structure (SMILES)	IC50 (NAMPT) [nM]	IC50 [1] [nM]	IC50 [2] [nM]	IC50 [3] [nM]	IC50 [4] [nM]	Change in NAMPT enzyme binding on modification of the TN Unit, relative to parent NAMPTi compound (NAMPT; FP assay, in words)
N#CN=C(NCCCCCCOc1ccc(Cl)cc1)Nc1ccncc1 [CHS-828, reference compound]	–	1.16	4.62	2.22	8.02	–
O=C(/C=C/c1cccnc1)NCCCCC1CCN(C(=O)c2ccccc2)CC1 [FK-866, reference compound]	–	5.45	6.64	7.32	36.2	–
Nc1cccc(C(=O)N2CCC(CCCCNC(=O)/C=C/c3cccnc3)CC2)c1 [compound 3]	40	8	7	8.5	38.5	–
Nc1ccc(C(=O)N2CCC(CCCCNC(=O)/C=C/c3cccnc3)CC2)cc1 [compound 4, (E)-N-(4-(1-(4-Aminobenzoyl)Piperidin-4-Yl)Butyl)-3-(Pyridin-3-y1)Acrylamide]	114	–	–	–	–	–
Nc1ccccc1C(=O)N1CCC(CCCCNC(=O)/C=C/c2cccnc2)CC1 [compound 5, (E)-N-(4-(1-(2-Aminobenzoyl)Piperidin-4-Yl)Butyl)-3-(Pyridin-3-Yl)Acrylamide]	101	1000	40	35	694	–
O=C(/C=C/c1cccnc1)NCCCCC1CCN(C(=O)c2ccc(O)cc2)CC1 [compound 7, (E)-N-(4-(1-(4-Hydroxybenzoyl)Piperidin-4-Yl)Butyl)-3-(Pyridin-3-Yl)Acrylamide]	79	–	–	–	–	–
O=C(/C=C/c1cccnc1)NCCCCC1CCN(C(=O)c2ccccc2O)CC1 [compound 8, (E)-N-(4-(1-(2-Hydroxybenzoyl)Piperidin-4-Yl)Butyl)-3-(Pyridin-3-Yl)Acrylamide]	101	221	99	87.3	643	–
O=C(/C=C/c1cccnc1)NCCCCC1CCN(C(=O)c2cccc(OCCO)c2)CC1 [compound 9, (E)-N-(4-(1-(3-(2-Hydroxyethoxy)Benzoyl)Piperidin-4-Yl)Butyl)-3-(Pyridin-3-Yl)Acrylamide]	80	–	–	–	–	–
O=C(/C=C/c1cccnc1)NCCCCC1CCN(C(=O)c2ccc(OCCO)cc2)CC1 [compound 10, (E)-N-(4-(1-(4-(2-Hydroxyethoxy)Benzoyl)Piperidin-4-Yl)Butyl)-3-(Pyridin-3-Yl)Acrylamide]	91	–	–	–	–	–
CN(CCON(C(=O)CCCCCCNC(=O)Nc1ccncc1)C1CCCCC1)C(=O)c1cccc(N)c1 [compound 43, 3-Amino-N-(2-((N-Cyclohexyl-7-(3-(Pyridin-4-Yl)Ureido)-Heptanamido)Oxy)Ethyl)-N-Methylbenzamide]	82	4	6	3	8	significant improvement in binding relative to parent compound 30
O=C(CCCCCCNc1c(Nc2ccncc2)c(=O)c1=O)N(OCCN1CCOCC1)C1CCCCC1 [compound 52, reference compound]	41	8.75	5.26	4.76	39	–
CCN(CCON(C(=O)CCCCCCNc1c(Nc2ccncc2)c(=O)c1=O)C1CCCCC1)C(=O)c1cccc(N)c1 [compound 60]	62	35	8	31	126	–
N#C/N=C(\NCCCCCCCC(=O)N1CCC(O)CC1)Nc1ccncc1 [compound 82, (E)-2-Cyano-1-(8-(4-Hydroxypiperidin-1-Yl)-8-Oxooctyl)-3-(Pyridin-4-Yl)Guanidine]	–	25	10	39	169	–

Now from value to compound, other results behind:

IC50 (NAMPT) [nM]	Structure (SMILES)	IC50 [1] [nM]	IC50 [2] [nM]	IC50 [3] [nM]	IC50 [4] [nM]	Change in NAMPT enzyme binding on modification of the TN Unit, relative to parent NAMPTi compound (NAMPT; FP assay, in words)
36	O=C(/C=C/c1cccnc1)NCCCCC1CCN(C(=O)c2cccc(O)c2)CC1 [compound 6, (E)-N-(4-(1-(3-Hydroxybenzoyl)Piperidin-4-Yl)Butyl)-3-(Pyridin-3-Yl)Acrylamide]	29	8	20	193	–
24	O=C(CCCCCCCNc1c(Nc2ccncc2)c(=O)c1=O)N(CCO)Cc1ccco1 [compound 66]	59.8	26.9	22.5	209	–
16	O=C(CCCCCCCNc1c(Nc2ccncc2)c(=O)c1=O)N1CCC(O)CC1 [compound 67]	948	108	265	1000	–
27	O=C(CCCCCCCNc1c(Nc2ccncc2)c(=O)c1=O)N1CC(O)C1 [compound 68]	1000	811	1000	1000	–
35	CN(CC1(CO)CCCC1)C(=O)CCCCCCCNc1c(Nc2ccncc2)c(=O)c1=O [compound 69, 8-((3,4-Dioxo-2-(Pyridin-4-Ylamino)Cyclobut-1-En-1-Yl)Amino)-N-((1-(Hydroxymethyl)Cyclopentyl)Methyl)-N-Methyloctanamide]	12.5	18	9.12	96.9	–
29	CN(CCO)C(=O)CCCCCCCNc1c(Nc2ccncc2)c(=O)c1=O [compound 72]	1000	807	1000	1000	–
17	CN(CC1(CO)CCCC1)C(=O)CCCCCCCN/C(=N\C#N)Nc1ccncc1 [compound 80, (E)-8-(2-Cyano-3-(Pyridin-4-Yl)Guanidino)-N-((1-(Hydroxymethyl)Cyclopentyl)Methyl)-N-Methyloctanamide]	1.08	1.63	0.78	6.12	–
24	N#C/N=C(\NCCCCCCCC(=O)N(CCO)Cc1ccco1)Nc1ccncc1 [compound 81, (E)-8-(2-Cyano-3-(Pyridin-4-Yl)Guanidino)-N-(Furan-2-Ylmethyl)-N-(2-Hydroxyethyl)Octanamide]	6.44	2.07	1.6	17.7	–
32	CN(CCO)C(=O)CCCCCCCN/C(=N\C#N)Nc1ccncc1 [compound 83, (E)-8-(2-Cyano-3-(Pyridin-4-Yl)Guanidino)-N-(2-Hydroxyethyl)-N-Methyloctanamide]	75.4	153	51.2	886	–
